Reference: US20240317739A1, “NOVEL UREA DERIVATIVE COMPOUND AS RON INHIBITOR” (LG CHEM, LTD., priority 2021, published 2024)

How the values were obtained:
RON = RON (Homo sapiens, UniProt Q04912); test: Evaluation of inhibitory activity against RON (TR-FRET); type: biochemical; conditions: TR-FRET kinase assay, RON protein
Description: In order to measure the inhibitory activity of each of the compounds of Examples against RON, the IC50 of each of the compounds was measured using a Time-Resolved Fluorescence Energy Transfer Chemistry (TR-FRET).
(§1) Specifically, the compound was prepared to a concentration of 1 mM with 100% DMSO and was diluted 10 times in a stepwise manner through 3-fold dilution. 2 ul of the compound diluted in a stepwise manner was added to a 96-well-plate containing 48 ul of a 1×kinase reaction buffer (50 mM HEPES (pH 7.4), 0.01% Tween-20, 5 mM DTT, 0.5 mM Na3VO4, 2 mM EGTA, 10 mM MgCl2).
The RON protein was diluted to a concentration of 49.3 nM with an RON storage buffer (50 mM Tris-HCl (pH 7.5), 150 mM NaCl, 0.5 mM EDTA, 0.02% Triton X-100), and then diluted again to a concentration of 0.4 nM with a 1×kinase reaction buffer. As a substrate cocktail, a RON-specific substrate mixture (40 uM ULight-labeled Poly GT, 100 nM ATP) at a concentration 2 times the final reaction concentration.
(§2) Thereafter, a 384-well-plate was prepared, and 2.5 μl of each of the diluted compounds of Examples was added to a corresponding well of experimental group wells, and 2.5 μl of a 4% DMSO solution was dispensed into high control wells and low control wells.
(§3) Thereafter, 2.5 μL of 0.4 nM RON was dispensed into the high control wells and the experimental group wells, and 2.5 μL of a 1× kinase reaction buffer was added to the low control wells, and the RON and the reaction buffer were centrifuged at room temperature for 40 seconds at 1000 RPM, and then incubated at room temperature for 20 to 30 minutes. Then, 5 uL of a substrate cocktail (2×) was dispensed into all wells, centrifuged at room temperature for 40 seconds at 1000 RPM, and then incubated at room temperature for 60 minutes. Thereafter, 5 uL of 30 mM EDTA was added to all wells to terminate the reaction, and then incubated again at room temperature for 5 minutes. Thereafter, 5 uL of a 4× phosphotyrosine antibody (Perkin Elmer) containing europium was added to all wells, and then incubated at room temperature for 60 minutes. After the incubation, the 384-well-plate was read with a Vison plate reader. At this time, the excitation wavelength was 340 nm, and the emission wavelength was 620 nm and 665 nm. The IC50 value of the compound of each Example was derived using the GraphPd Prism7 program.

cMET = cMET (Homo sapiens, UniProt P08581); test: Evaluation of inhibitory activity against MET (TR-FRET); type: biochemical; conditions: TR-FRET kinase assay, cMET protein
cMET, sequence (P08581 25-1390): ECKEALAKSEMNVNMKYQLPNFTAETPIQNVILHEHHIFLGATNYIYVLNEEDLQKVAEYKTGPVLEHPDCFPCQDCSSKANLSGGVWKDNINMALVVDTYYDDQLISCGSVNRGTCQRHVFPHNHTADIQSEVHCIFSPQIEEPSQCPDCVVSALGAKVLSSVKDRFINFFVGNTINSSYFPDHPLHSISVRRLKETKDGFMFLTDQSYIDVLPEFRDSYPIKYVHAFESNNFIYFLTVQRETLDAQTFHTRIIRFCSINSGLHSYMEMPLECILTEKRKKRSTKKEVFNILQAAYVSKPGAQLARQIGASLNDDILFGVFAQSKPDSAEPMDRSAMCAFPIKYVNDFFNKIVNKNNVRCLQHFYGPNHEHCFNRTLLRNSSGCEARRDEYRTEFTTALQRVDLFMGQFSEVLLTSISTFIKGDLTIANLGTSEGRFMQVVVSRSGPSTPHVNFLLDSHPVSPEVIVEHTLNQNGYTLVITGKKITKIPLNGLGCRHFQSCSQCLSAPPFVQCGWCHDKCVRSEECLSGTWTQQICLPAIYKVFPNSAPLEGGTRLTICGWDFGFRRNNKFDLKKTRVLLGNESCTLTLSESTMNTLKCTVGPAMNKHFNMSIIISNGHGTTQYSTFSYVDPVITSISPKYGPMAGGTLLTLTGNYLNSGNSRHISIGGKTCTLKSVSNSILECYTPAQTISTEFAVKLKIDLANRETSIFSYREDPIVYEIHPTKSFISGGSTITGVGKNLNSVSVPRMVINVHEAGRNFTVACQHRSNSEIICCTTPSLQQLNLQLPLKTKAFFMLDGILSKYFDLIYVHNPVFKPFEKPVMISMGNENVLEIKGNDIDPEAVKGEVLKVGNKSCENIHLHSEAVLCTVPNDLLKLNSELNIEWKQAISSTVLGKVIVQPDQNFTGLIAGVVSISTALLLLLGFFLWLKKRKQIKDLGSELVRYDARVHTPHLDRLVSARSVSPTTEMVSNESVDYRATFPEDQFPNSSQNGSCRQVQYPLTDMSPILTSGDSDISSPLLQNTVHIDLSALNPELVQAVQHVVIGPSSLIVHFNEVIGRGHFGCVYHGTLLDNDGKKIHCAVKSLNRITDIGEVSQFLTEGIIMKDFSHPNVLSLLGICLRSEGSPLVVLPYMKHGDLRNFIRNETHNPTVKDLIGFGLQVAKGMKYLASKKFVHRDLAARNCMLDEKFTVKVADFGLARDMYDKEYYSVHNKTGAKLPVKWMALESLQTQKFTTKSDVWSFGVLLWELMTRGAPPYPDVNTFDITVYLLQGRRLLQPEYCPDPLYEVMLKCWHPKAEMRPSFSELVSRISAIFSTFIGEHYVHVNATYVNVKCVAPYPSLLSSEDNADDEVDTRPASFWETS
Description: In addition, in order to measure the enzyme activity inhibition for cMET, the evaluation was performed in the same manner as the enzyme activity inhibition measurement experiment for the RON.
as §1, with “a 1× kinase” for “a 1×kinase”, “7.4), 0.05% BSA, 0.005%” for “7.4), 0.01%”, “Tween-20, 1” for “Tween-20, 5”, “mM MnCl2, 20” for “mM Na3VO4, 2 mM EGTA, 10”
The cMET protein was diluted to a concentration of 263 nM with a cMET storage buffer (50 mM Tris-HCl (pH 7.5), 150 mM NaCl, 0.05% Brij35, 1 mM DTT, 10% Glycerol), and then diluted again to a concentration of 2 nM with a 1× kinase reaction buffer. As a substrate cocktail, a MET-specific substrate mixture (5 uM TK peptide, […]) at a concentration 2 times the final reaction concentration.
as §2
as §3, with “of 2” for “of 0.4”, “nM cMET” for “nM RON”, “of 90” for “of 30”, “The […]” for “The IC50”

RON, sequence (Q04912 25-1400, species assumed): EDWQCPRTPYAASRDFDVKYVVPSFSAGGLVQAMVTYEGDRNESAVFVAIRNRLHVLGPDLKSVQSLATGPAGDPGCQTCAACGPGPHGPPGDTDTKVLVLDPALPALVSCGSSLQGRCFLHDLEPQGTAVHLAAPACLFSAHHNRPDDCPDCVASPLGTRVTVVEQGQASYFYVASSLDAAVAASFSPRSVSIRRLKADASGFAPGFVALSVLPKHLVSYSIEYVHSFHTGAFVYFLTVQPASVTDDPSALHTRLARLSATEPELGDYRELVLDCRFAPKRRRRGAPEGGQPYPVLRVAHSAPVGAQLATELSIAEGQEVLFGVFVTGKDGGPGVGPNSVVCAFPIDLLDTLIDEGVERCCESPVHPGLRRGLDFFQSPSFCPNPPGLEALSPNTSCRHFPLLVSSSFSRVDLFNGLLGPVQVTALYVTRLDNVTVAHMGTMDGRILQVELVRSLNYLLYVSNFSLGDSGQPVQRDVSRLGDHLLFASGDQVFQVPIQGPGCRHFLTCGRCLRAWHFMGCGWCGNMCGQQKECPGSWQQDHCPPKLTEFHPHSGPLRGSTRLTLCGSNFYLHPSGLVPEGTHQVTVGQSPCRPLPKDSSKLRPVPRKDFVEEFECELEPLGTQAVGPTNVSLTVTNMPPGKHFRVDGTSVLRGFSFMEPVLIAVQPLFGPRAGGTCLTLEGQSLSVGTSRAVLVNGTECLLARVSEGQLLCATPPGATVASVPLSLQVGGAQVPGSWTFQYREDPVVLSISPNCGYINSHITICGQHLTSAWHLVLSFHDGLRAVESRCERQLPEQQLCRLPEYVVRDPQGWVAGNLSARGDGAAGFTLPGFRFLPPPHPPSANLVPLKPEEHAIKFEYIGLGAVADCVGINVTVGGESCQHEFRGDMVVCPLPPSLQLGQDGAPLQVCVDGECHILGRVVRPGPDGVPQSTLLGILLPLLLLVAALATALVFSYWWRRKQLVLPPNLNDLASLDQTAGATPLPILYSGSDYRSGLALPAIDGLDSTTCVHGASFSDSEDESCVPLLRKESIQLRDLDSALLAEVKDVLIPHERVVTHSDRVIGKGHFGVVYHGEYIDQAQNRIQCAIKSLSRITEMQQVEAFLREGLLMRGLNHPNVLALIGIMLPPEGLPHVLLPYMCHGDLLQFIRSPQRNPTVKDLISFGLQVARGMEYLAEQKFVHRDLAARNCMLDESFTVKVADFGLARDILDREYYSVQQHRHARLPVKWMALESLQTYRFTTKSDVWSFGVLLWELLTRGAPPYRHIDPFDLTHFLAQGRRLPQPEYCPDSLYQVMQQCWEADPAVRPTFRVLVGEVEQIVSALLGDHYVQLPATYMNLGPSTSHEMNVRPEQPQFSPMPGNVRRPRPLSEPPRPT

Question: Which IC50 (RON) does the source give for `Cc1ccnc(-n2ncc(C(=O)Nc3ccc(Oc4ccnc5[nH]c(=O)n(C(C)C)c45)c(F)c3)c2C(F)(F)F)n1` [Example 26, N-(3-fluoro-4-((1-isopropyl-2-oxo-2,3-dihydro-1H-imidazo[4,5-b]pyridine-7-yl)oxy)phenyl)-1-(4-methylpyrimidine-2-yl)-5-(trifluoromethyl)-1H-pyrazole-4-carboxamide] here?
Answer: < 50 nM

Question: What about the IC50 (cMET) of the same molecule?
Answer: 500 to 5000 nM

Question: For `CC(C)n1c(=O)[nH]c2nccc(Oc3ccc(NC(=O)c4cnn(-c5ccncn5)c4C(F)(F)F)cc3F)c21` [Example 27, N-(3-fluoro-4-((1-isopropyl-2-oxo-2,3-dihydro-1H-imidazo[4,5-b]pyridine-7-yl)oxy)phenyl)-1-(pyrimidine-4-yl)-5-(trifluoromethyl)-1H-pyrazole-4-carboxamide], which IC50 (RON) is on record?
Answer: < 50 nM

Question: What about the IC50 (cMET) of the same molecule?
Answer: 500 to 5000 nM

Question: Which results are given for `CC(C)n1c(=O)[nH]c2nccc(Oc3ccc(NC(=O)c4cnn(-c5cc(F)ccn5)c4C(F)(F)F)cc3F)c21` [Example 38, N-(3-fluoro-4-((1-isopropyl-2-oxo-2,3-dihydro-1H-imidazo[4,5-b]pyridine-7-yl)oxy)phenyl)-1-(4-fluoropyridine-2-yl)-5-(trifluoromethyl)-1H-pyrazole-4-carboxamide]?
Answer: IC50 (RON): < 50 nM; IC50 (cMET): > 5000 nM

Question: What does the source list for `CC(C)n1c(=O)[nH]c2nccc(Oc3ccc(NC(=O)c4cnn(-c5cccnn5)c4C(F)(F)F)cc3F)c21` [Example 35, N-(3-fluoro-4-((1-isopropyl-2-oxo-2,3-dihydro-1H-imidazo[4,5-b]pyridine-7-yl)oxy)phenyl)-1-(pyridazine-3-yl)-5-(trifluoromethyl)-1H-pyrazole-4-carboxamide]?
Answer: IC50 (RON): < 50 nM; IC50 (cMET): 500 to 5000 nM

Question: What does the source list for `O=C(Nc1ccc(Oc2ccnc3[nH]c(=O)n(C4CCOCC4)c23)c(F)c1)c1cnn(-c2ncccc2F)c1C(F)(F)F` [Example 39, N-(3-fluoro-4-((2-oxo-1-(tetrahydro-2H-pyran-4-yl)-2,3-dihydro-1H-imidazo[4,5-b]pyridine-7-yl)oxy)phenyl)-1-(3-fluoropyridine-2-yl)-5-(trifluoromethyl)-1H-pyrazole-4-carboxamide]?
Answer: IC50 (RON): < 50 nM; IC50 (cMET): 500 to 5000 nM

Question: Which IC50 (RON) does the source give for `COc1ccnc(-n2ncc(C(=O)Nc3ccc(Oc4ccnc5[nH]c(=O)n(C(C)C)c45)c(F)c3)c2C(F)(F)F)c1` [Example 33, N-(3-fluoro-4-((1-isopropyl-2-oxo-2,3-dihydro-1H-imidazo[4,5-b]pyridine-7-yl)oxy)phenyl)-1-(4-methoxypyridine-2-yl)-5-(trifluoromethyl)-1H-pyrazole-4-carboxamide] here?
Answer: < 50 nM

Question: What about the IC50 (cMET) of the same molecule?
Answer: 500 to 5000 nM

Question: With `CCOc1cccnc1-n1ncc(C(=O)Nc2ccc(Oc3ccnc4[nH]c(=O)n(C(C)C)c34)c(F)c2)c1C(F)(F)F` [Example 37, 1-(3-ethoxypyridine-2-yl)-N-(3-fluoro-4-((1-isopropyl-2-oxo-2,3-dihydro-1H-imidazo[4,5-b]pyridine-7-yl)oxy)phenyl)-5-(trifluoromethyl)-1H-pyrazole-4-carboxamide] as the molecule, how does the IC50 (RON) read?
Answer: 50 to 500 nM

Question: What about the IC50 (cMET) of the same molecule?
Answer: 500 to 5000 nM

Question: How did the IC50 (RON) turn out when `CC(C)n1c(=O)[nH]c2nccc(Oc3ccc(NC(=O)c4cnn(-c5ccc(C(F)(F)F)cn5)c4C(F)(F)F)cc3F)c21` [Example 13, N-(3-fluoro-4-((1-isopropyl-2-oxo-2,3-dihydro-1H-imidazo[4,5-b]pyridine-7-yl)oxy)phenyl)-5-(trifluoromethyl)-1-(5-(trifluoromethyl)pyridine-2-yl)-1H-pyrazole-4-carboxamide] was run?
Answer: > 5000 nM

Question: And the IC50 (cMET)?
Answer: > 5000 nM

Question: Which results are given for `Cc1cccc(-n2ncc(C(=O)Nc3ccc(Oc4ccnc5[nH]c(=O)n(C(C)C)c45)c(F)c3)c2C(F)(F)F)n1` [Example 18, N-(3-fluoro-4-((1-isopropyl-2-oxo-2,3-dihydro-1H-imidazo[4,5-b]pyridine-7-yl)oxy)phenyl)-1-(6-methylpyridine-2-yl)-5-(trifluoromethyl)-1H-pyrazole-4-carboxamide]?
Answer: IC50 (RON): < 50 nM; IC50 (cMET): 500 to 5000 nM

Question: For `COc1ccc(-n2ncc(C(=O)Nc3ccc(Oc4ccnc5[nH]c(=O)n(C(C)C)c45)c(F)c3)c2C(F)(F)F)nc1` [Example 34, N-(3-fluoro-4-((1-isopropyl-2-oxo-2,3-dihydro-1H-imidazo[4,5-b]pyridine-7-yl)oxy)phenyl)-1-(5-methoxypyridine-2-yl)-5-(trifluoromethyl)-1H-pyrazole-4-carboxamide], which IC50 (RON) is on record?
Answer: 50 to 500 nM

Question: What about the IC50 (cMET) of the same molecule?
Answer: > 5000 nM

Question: Which IC50 (RON) does the source give for `COc1cccnc1-n1ncc(C(=O)Nc2ccc(Oc3ccnc4[nH]c(=O)n(C(C)C)c34)c(F)c2)c1C(F)(F)F` [Example 28, N-(3-fluoro-4-((1-isopropyl-2-oxo-2,3-dihydro-1H-imidazo[4,5-b]pyridine-7-yl)oxy)phenyl)-1-(3-methoxypyridine-2-yl)-5-(trifluoromethyl)-1H-pyrazole-4-carboxamide] here?
Answer: < 50 nM

Question: And the IC50 (cMET)?
Answer: 500 to 5000 nM

Question: For `CCc1ccnc(-n2ncc(C(=O)Nc3ccc(Oc4ccnc5[nH]c(=O)n(C(C)C)c45)c(F)c3)c2C(F)(F)F)c1` [Example 30, 1-(4-ethylpyridine-2-yl)-N-(3-fluoro-4-((1-isopropyl-2-oxo-2,3-dihydro-1H-imidazo[4,5-b]pyridine-7-yl)oxy)phenyl)-5-(trifluoromethyl)-1H-pyrazole-4-carboxamide], which IC50 (RON) is on record?
Answer: 50 to 500 nM

Question: What about the IC50 (cMET) of the same molecule?
Answer: 500 to 5000 nM

Question: For `CCc1c(C(=O)Nc2ccc(Oc3ccnc4[nH]c(=O)n(C5CCCC5)c34)c(F)c2)cnn1-c1cncnc1` [Example 6, N-(4-((1-cyclopentyl-2-oxo-2,3-dihydro-1H-imidazo[4,5-b]pyridine-7-yl)oxy)-3-fluorophenyl)-5-ethyl-1-(pyrimidine-5-yl)-1H-pyrazole-4-carboxamide], which IC50 (RON) is on record?
Answer: 50 to 500 nM

Question: And the IC50 (cMET)?
Answer: > 5000 nM

Question: Which IC50 (RON) does the source give for `CC(C)n1c(=O)[nH]c2nccc(Oc3ccc(NC(=O)c4cnn(-c5ncccc5C(F)(F)F)c4C(F)(F)F)cc3F)c21` [Example 12, N-(3-fluoro-4-((1-isopropyl-2-oxo-2,3-dihydro-1H-imidazo[4,5-b]pyridine-7-yl)oxy)phenyl)-5-(trifluoromethyl)-1-(3-(trifluoromethyl)pyridine-2-yl)-1H-pyrazole-4-carboxamide] here?
Answer: < 50 nM

Question: And the IC50 (cMET)?
Answer: 500 to 5000 nM

Question: What does the source list for `CC(C)n1c(=O)[nH]c2nccc(Oc3ccc(NC(=O)c4cnn(-c5cccnc5)c4C(F)(F)F)cc3F)c21` [Example 23, N-(3-fluoro-4-((1-isopropyl-2-oxo-2,3-dihydro-1H-imidazo[4,5-b]pyridine-7-yl)oxy)phenyl)-1-(pyridine-3-yl)-5-(trifluoromethyl)-1H-pyrazole-4-carboxamide]?
Answer: IC50 (RON): < 50 nM; IC50 (cMET): 500 to 5000 nM

Question: Which IC50 (RON) does the source give for `CCc1c(C(=O)Nc2ccc(Oc3ccnc4[nH]c(=O)[nH]c34)c(F)c2)cnn1-c1cncnc1` [Example 1, 5-ethyl-N-(3-fluoro-4-((2-oxo-2,3-dihydro-1H-imidazo[4,5-b]pyridine-7-yl)oxy)phenyl)-1-(pyrimidine-5-yl)-1H-pyrazole-4-carboxamide] here?
Answer: > 5000 nM

Question: And the IC50 (cMET)?
Answer: > 5000 nM
